This is an account of results in patent US20100204460A1, “NATURAL BRASSINOSTEROIDS FOR USE FOR TREATING HYPERPROLIFERATION, TREATING PROLIFERATIVE DISEASES AND REDUCING ADVERSE EFFECTS OF STEROID DYSFUNCTION IN MAMMALS, PHARMACEUTICAL COMPOSITION AND ITS USE” (priority 2007, published 2010).

Common to all, as to assay type: cell-based
The subject of data set [1] is normal human fibroblasts (BJ). In words: Calcein AM cytotoxicity assay, BJ. The conditions noted are these: BJ normal fibroblasts; exposure 72 h (b71 says 96 h); mean ± SD; read-out: IC50 assessed by Calcein AM assay of surviving cells.
Data set [2] relates to MCF-7 (estrogen receptor-α-positive) breast cancer cell line. Briefly: MTT cytotoxicity test, MCF-7. The settings on record: 24 h, mean ± SD, read-out: IC50 determined by MTT cytotoxicity test. The protocol:
(§1) 3-(4,5-Dimethylthiazol-2-yl)-2,5-diphenyltetrazolium bromide (MTT) was from Serva Electrophoresis (Heidelberg, Germany). Monoclonal mouse anti-bromodeoxyuridine (BrdU) intibody was obtained from DakoCytomation (Glostrup, Denmark). Calcein AM was obtained from PAA Laboratories GmbH (Pasching, Austria). […] All other cells were cultured in DMEM medium (Sigma, MO, USA). All used media were supplemented with 10% heat-inactivated fetal bovine serum, 2 mmol/L L-glutamine, 1% penicillin/streptomycin. The cell lines were maintained under standard cell culture conditions at 37° C. and 5% CO2 in a humid environment. Cells were subcultured twice or three times a week using the standard trypsinization procedure (Sigma, USA).
(§2) Cell viability in this case was assessed by 3-(4,5-dimethylthiozol-2-yl)-2,5-diphenyltetrazolium bromide (MTT) to determine IC50 concentrations of studied agents as described previously. […] The cells (70% to 80% confluent) were treated with brassinosteroids for 6, 12 and 24 h in cell culture medium. Cells that were used as controls were incubated with the maximum used amount of steroid diluent DMSO only. […] The absorbance was read using an ELISA reader Labsystem Multiscan RC at 570 nm. The viability of treated cells was related to the viability of control cells that represented 100% viability. […]

Data set [3] relates to MDA-MB-468 (estrogen receptor-α-negative) breast cancer cell line. Briefly: MTT cytotoxicity test, MDA-MB-468. The conditions noted are these: 24 h, mean ± SD, read-out: IC50 determined by MTT cytotoxicity test. As to the method: as §1, §2
In general terms: Tetrazolium dyes change colour on reduction, which living cells bring about.

The test system of data set [4] is MDA-MB-468 cells. In words: BrdU incorporation assay, MDA-MB-468. As to the method:
To analyze if the inhibition in cell viability was due to decreased cell proliferation, we measured DNA synthesis in the presence of BRs. The effect of brassinosteroids 9 or 6 on cell proliferation and DNA replication of the cancer cells was measured by BrdU incorporation assay. This immunostaining was based on nuclear incorporation of bromodeoxyuridine (BrdU) into DNA in place of thymidine during the S-phase of cell cycle detected by anti-specific-BrdU antibody following membrane permeabilization as described previously (Gratzner, Science. 1982, 218, 474-475). […] The BrdU reagent (0.1 mM; Sigma, MO, USA) was added in culture medium with cells for 4 h in a CO2 incubator at 37° C. After incubation the cells were washed three times with PBS and fixed with cold acetone-methanol (1:1, v/v) for 10 min. The cells were denaturated by HCl (1:5; Lachema, Czech Republic) and incubated with anti-specific-BrdU antibody (diluted 1:100 in PBS; clone Bu20a, DakoCytomation, Denmark) for 60 min in the dark. The cells were then washed three times in PBS (10 mM, pH 7.4) and incubated with goat anti-mouse fluorescein isothiocyanate (FITC)-labeled secondary antibody (Sigma, MO, USA) for 60 min in the dark. The cells were then washed three times in PBS and incubated with DAPI (50 μg/mL; Sigma, MO, USA) for 10 min in the dark. The coverslips with cells were washed in deionized water and mounted on glass slides, using the hydrophilic medium Mowiol (Calbiochem, Calif., USA) in glycerol-PBS (1:3, v/v) for fluorescence. Cells were visualized using microscopy and those incorporating BrdU (S phase cells) were counted in at least 25 fields and compared with the total number of all cells.
For orientation: Incorporation of labelled thymidine or its analogues reports DNA synthesis.

Data set [5] concerns MDA-MB-468 cells. Briefly: Cell cycle distribution by flow cytometry, MDA-MB-468. The conditions noted are these: IC50, 24 h; for Apoptosis subG1 fraction: control 10%; for Cell cycle distribution G2/M: control 17%; for Cell cycle distribution S: control 31%; for Cell cycle distribution G1: control 52%. The source says:
In the MCF-7 breast cancer cell line that has been the most widely studied experimental cell system, the typical growth inhibitory response to antiestrogens is decrease in the proportion of cells synthesising DNA (S phase) after antiestrogen treatment. This decrease in S phase coincides with an increase in the proportion of cells in G0/G1 phase. The activity of the androgen receptor (AR) is also regulated by alterations in cell signaling. There has been reported ligand independent activation of AR in prostate cancer cells by different growth factors. As the AR can be activated in the absence of hormone, it appears that the conditions may be more restricted than those observed for ER. Use of physiologic doses of ligand (dihydrotestosterone, DHT) is of importance as the LNCaP cells proliferate only at DHT concentration of 10^−9 M or lower. […] In contrast to proliferation, transactivation of AR specific target genes (e.g. PSA) continues to increase with DHT doses of 10^−10 M and higher. It might be accepted for estrogen or androgen receptors as stronger cytotoxic activities of brassinosteroids 9 or 6 on hormone-sensitive (MCF-7, LNCaP) compared to hormone-insensitive (MDA-MB-468, DU-145) cell lines were found. Therefore we explored the possibility of cell cycle perturbation by BRs in different cancer cell lines. Flow cytometry was used to evaluate the number of cells in the particular phases of the cell cycle, including subG1 peak detection. Control and treated cells were washed twice with cold PBS and centrifuged at 360×g for 10 min at 4° C., and fixed with chilled ethanol (70%; v/v) by low-speeded vortexing. For detection of DNA content analysis, propidium iodide staining was used. The cells were analyzed using a FACSCalibur flow cytometer (BD Biosciences, San Jose, Calif.).
Flow-cytometric detection of apoptosis. Several studies have declared that the induction of apoptosis may be cell cycle-dependent. Therefore, in our next series of experiments, we tested if brassinosteroids 9 or 6 cause apoptosis of the breast and prostate cancer cells via cell cycle blockage. From this reason we carried out DNA cell cycle analysis by flow cytometry based on detection of endonucleolytic DNA degradation that results in extraction of low molecular weight DNA from the cells. […] The subG1 peak containing apoptotic bodies was however not observed in MCF-7 cells.

The mark [6] stands for this setting: treated at IC50 for 6 h, control 64 ± 1.5.
Where [7] appears, read: treated at IC50 for 12 h, control 58 ± 3.0.
Where [8] appears, read: treated at IC50 for 24 h, control 64 ± 5.6.

Broadly, the IC50 is the concentration needed to halve the response being measured. Turning to `CC[C@@H](C(C)C)[C@@H](O)[C@H](O)[C@@H](C)[C@H]1CC[C@H]2[C@@H]3CC(=O)[C@H]4C[C@H](O)[C@H](O)C[C@]4(C)[C@H]3CC[C@]12C` [Brassinosteroid 9, 28-Homocastasterone], the IC50 in data set [1] was above 50 µM; in data set [2] it was 40 ± 1.5 µM; in data set [3] it was 65 ± 2.8 µM. The “percentage of proliferating BrdU positive cells” value in data set [4] (setting [6]) came to 55 ± 5.0%; in data set [4] (setting [7]), 48 ± 4.6%; in data set [4] (setting [8]), 28 ± 4.6 %. For the same molecule, the “Apoptosis subG1 fraction” value in data set [5] was 35%. Besides, the “Cell cycle distribution G2/M” value in data set [5] is 9%. In addition, the “Cell cycle distribution S” value in data set [5] was determined as 17%. The “Cell cycle distribution G1” value in data set [5] is given as 74%.
For the molecule `CC(C)[C@@H](C)[C@@H](O)[C@H](O)[C@@H](C)[C@H]1CC[C@H]2[C@@H]3COC(=O)[C@H]4C[C@H](O)[C@H](O)C[C@]4(C)[C@H]3CC[C@]12C` [Brassinosteroid 6, 24-Epibrassinolide], the IC50 in data set [1] is above 50 µM; in data set [2] it was 60 ± 1.8 µM; in data set [3], 68 ± 2.5 µM. Also, the “percentage of proliferating BrdU positive cells” value in data set [4] (setting [6]) is given as 53 ± 4.4 %; in data set [4] (setting [7]), 55 ± 3.5%; in data set [4] (setting [8]), 43 ± 3.6 %. The “Apoptosis subG1 fraction” value in data set [5] was 75%. For the same molecule, in data set [5], the “Cell cycle distribution G2/M” value is given as 2%. The “Cell cycle distribution S” value in data set [5] was 10%. Moreover, the “Cell cycle distribution G1” value in data set [5] is reported as 88%.
